{
  "source": "paper PMC3375898",
  "about": "(Natural Product Communications, 2011)",
  "format_in_all_cases": "cell-based",
  "key": {"[1]": {"tested_on": "MCF-7 human breast cancer cells", "experiment": "Cancer bioassay, cytotoxicity by NCI protocol"}, "[2]": {"tested_on": "recombinant Tulahuen clone C4 of T. cruzi, intracellular amastigotes in Vero cells", "experiment": "Chagas' disease bioassay, beta-galactosidase colorimetric assay", "conditions": "Trypanosoma cruzi, 120 h, read-out: IC50 T. cruzi"}, "[3]": {"tested_on": "chloroquine-resistant strain (Indochina W2) of P. falciparum", "experiment": "Malaria bioassay, PicoGreen fluorometric antiplasmodial assay", "conditions": "Plasmodium falciparum"}, "[4]": {"experiment": "Mammalian cell cytotoxicity bioassay", "conditions": "African green monkey, Vero cells (kidney)"}},
  "note": "Like-named read-outs stand apart in the source and are kept apart here.",
  "data": [
    {"smiles": "COc1cccc2c1C(=O)c1c(O)c3c(c(O)c1C2=O)C[C@@](O)(C(=O)CO)C[C@@H]3O[C@H]1C[C@H](N)[C@H](O)[C@H](C)O1", "note": "[Adriamycin, reference compound]", "values": [
      {"measurement": "IC50", "setting": "[1]; MCF7, read-out: IC50 MCF-7, positive control", "result": "0.02 to 0.3", "unit": "nM"}
    ]},
    {"smiles": "CC1CS(=O)(=O)CCN1/N=C/c1ccc([N+](=O)[O-])o1", "note": "(stereo not shown) [Nifurtimox, reference compound]", "values": [
      {"measurement": "IC50", "setting": "[2]", "result": "10000 to 16000", "unit": "nM"}
    ]},
    {"smiles": "CCN(CC)CCCC(C)Nc1ccnc2cc(Cl)ccc12", "note": "(stereo not shown) [Chloroquine, reference compound]", "values": [
      {"measurement": "IC50", "setting": "[3]; W2, read-out: IC50 P. falciparum, positive control", "result": "80 to 100", "unit": "nM"}
    ]},
    {"smiles": "COc1c(CC(C)O)c2c3c(CC(C)O)c(OC)c(=O)c4c(O)cc5c(c6c(cc(O)c(c1=O)c62)OCO5)c43", "note": "(stereo not shown) [Compound 1, cercosporin]", "values": [
      {"measurement": "IC50", "setting": "[3]; W2, read-out: IC50 P. falciparum", "result": "1030 ± 30", "unit": "nM"},
      {"measurement": "IC50 at 4 h", "setting": "[4]", "result": "1540 ± 100", "unit": "nM"},
      {"measurement": "IC50", "setting": "[1]; MCF7, read-out: IC50 MCF-7", "result": "4680 ± 200", "unit": "nM"},
      {"measurement": "IC50", "setting": "[2]", "result": "1080 ± 30", "unit": "nM"}
    ]}
  ]
}
